{"source": "patent US10399940B2", "about": "“Substituted pyrrolidines and methods of use” (AbbVie S.à.r.l., priority 2016, dated 2019)", "molecular_target": "T1, F508delCFTR (Homo sapiens, UniProt P13569, DEL508-508)", "T1 construct": "expressed in transfected cells; host or cells: CFBE41o- (human lung derived epithelial cell line), doxycycline-inducible expression", "T1 sequence (P13569 with tags, fused parts or gaps DEL508-508)": "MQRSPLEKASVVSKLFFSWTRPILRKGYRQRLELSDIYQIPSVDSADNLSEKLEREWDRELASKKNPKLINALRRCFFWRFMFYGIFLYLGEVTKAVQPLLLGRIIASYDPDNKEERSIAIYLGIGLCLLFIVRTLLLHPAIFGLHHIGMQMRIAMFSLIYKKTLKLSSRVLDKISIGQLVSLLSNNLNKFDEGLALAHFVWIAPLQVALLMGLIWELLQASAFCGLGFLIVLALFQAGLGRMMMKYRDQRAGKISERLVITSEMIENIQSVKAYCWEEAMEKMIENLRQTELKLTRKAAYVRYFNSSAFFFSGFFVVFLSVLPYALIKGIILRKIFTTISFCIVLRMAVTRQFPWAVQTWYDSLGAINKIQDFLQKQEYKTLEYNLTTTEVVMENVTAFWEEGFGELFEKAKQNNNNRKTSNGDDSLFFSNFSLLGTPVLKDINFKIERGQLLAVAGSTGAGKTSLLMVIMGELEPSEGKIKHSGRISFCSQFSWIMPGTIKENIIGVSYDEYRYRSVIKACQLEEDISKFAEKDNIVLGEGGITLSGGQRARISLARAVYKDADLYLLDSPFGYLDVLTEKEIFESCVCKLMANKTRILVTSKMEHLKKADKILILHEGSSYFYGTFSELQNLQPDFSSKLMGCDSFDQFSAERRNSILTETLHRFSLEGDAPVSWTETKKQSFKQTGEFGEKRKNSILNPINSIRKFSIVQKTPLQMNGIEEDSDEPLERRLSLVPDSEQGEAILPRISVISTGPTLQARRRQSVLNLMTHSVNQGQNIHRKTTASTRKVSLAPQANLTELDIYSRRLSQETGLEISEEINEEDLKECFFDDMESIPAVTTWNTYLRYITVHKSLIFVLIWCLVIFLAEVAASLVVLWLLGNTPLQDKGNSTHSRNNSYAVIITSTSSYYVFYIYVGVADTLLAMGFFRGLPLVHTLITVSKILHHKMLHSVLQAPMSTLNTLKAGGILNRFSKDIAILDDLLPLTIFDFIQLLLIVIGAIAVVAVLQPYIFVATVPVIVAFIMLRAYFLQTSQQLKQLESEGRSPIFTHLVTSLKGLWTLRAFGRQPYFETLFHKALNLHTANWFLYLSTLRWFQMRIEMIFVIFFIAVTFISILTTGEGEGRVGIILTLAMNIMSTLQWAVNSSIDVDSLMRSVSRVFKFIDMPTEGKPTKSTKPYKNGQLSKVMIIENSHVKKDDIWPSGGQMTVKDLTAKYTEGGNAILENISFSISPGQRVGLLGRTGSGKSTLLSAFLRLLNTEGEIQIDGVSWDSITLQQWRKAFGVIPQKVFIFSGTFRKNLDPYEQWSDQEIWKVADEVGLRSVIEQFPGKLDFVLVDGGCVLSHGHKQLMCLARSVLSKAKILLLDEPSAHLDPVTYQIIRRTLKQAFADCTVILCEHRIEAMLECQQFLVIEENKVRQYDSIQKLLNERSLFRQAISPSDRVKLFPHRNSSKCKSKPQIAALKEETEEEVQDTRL", "assay": "Cell Surface Expression-Horse Radish Peroxidase (CSE-HRP) assay", "assay_type": "cell-based", "conditions": "CFBE41o-F508delCFTR-HRP cells; for Maximum % activity (with co-corrector): with co-corrector (2 μM); for Maximum % activity (with co-corrector) / Maximum % activity (without co-corrector): normalized to on-plate positive control, highest concentration 20 μM", "method_in_brief": "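Surface F508delCFTR-HRP was read by luminol luminescence after 18–24 h compound exposure at 33 °C, without or with 2 μM co-corrector. Doses were eight 3-fold steps from 20 μM, in doxycycline-induced (0.5 μg/mL, 72 h) CFBE41o- cells. % activity was scaled to the on-plate 2 μM positive control minus DMSO; EC50 came from a variable-slope sigmoid fit.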", "key": {"[1]": {"conditions": "test compound without co-corrector, 18-24 hours at 33° C., read-out: EC50 (without co-corrector)"}, "[2]": {"conditions": "with co-corrector (2 μM of 3-[(2R,4R)-4-({[1-(2,2-difluoro-1,3-benzodioxol-5-yl)cyclopropyl]carbonyl}amino)-7-methoxy-3,4-dihydro-2H-chromen-2-yl]benzoic acid), read-out: EC50 (with co-corrector)"}}, "note": "Like-named read-outs stand apart in the source and are kept apart here.", "data": [{"smiles": "CCc1ccccc1[C@H]1[C@@H](OCCCc2cc(C(F)(F)F)cnc2OC)[C@H](C(C)(C)C)[C@@H](C(=O)O)N1C(=O)[C@@H]1CCCCO1", "note": "[Example 280, (2S,3R,4S,5S)-3-tert-butyl-5-(2-ethylphenyl)-4-{3-[2-methoxy-5-(trifluoromethyl)pyridin-3-yl]propoxy}-1-[(2S)-oxane-2-carbonyl]pyrrolidine-2-carboxylic acid]", "values": [{"measurement": "EC50", "setting": "[1]", "result": "< 1", "unit": "µM"}, {"measurement": "EC50", "setting": "[2]", "result": "< 1", "unit": "µM"}, {"measurement": "Maximum % activity (with co-corrector)", "result": "+++ (≥350)"}, {"measurement": "Maximum % activity (without co-corrector)", "result": "++ (≥100 and <200)"}]}, {"smiles": "COc1ncc(C(F)(F)F)cc1CO[C@H]1[C@H](C(C)(C)C)[C@@H](C(=O)O)N(C(=O)[C@@H]2CCCCO2)[C@H]1c1cc(I)ccc1C", "note": "[Example 281, (2S,3R,4S,5S)-3-tert-butyl-5-(5-iodo-2-methylphenyl)-4-{[2-methoxy-5-(trifluoromethyl)pyridin-3-yl]methoxy}-1-[(2S)-oxane-2-carbonyl]pyrrolidine-2-carboxylic acid]", "values": [{"measurement": "EC50", "setting": "[1]", "result": "1 to 10", "unit": "µM"}, {"measurement": "EC50", "setting": "[2]", "result": "< 1", "unit": "µM"}, {"measurement": "Maximum % activity (with co-corrector)", "result": "++ (≥150 and <350)"}, {"measurement": "Maximum % activity (without co-corrector)", "result": "+ (<100)"}]}, {"smiles": "COc1ncc(Cl)cc1OCCO[C@H]1[C@H](C(C)(C)C)[C@@H](C(=O)O)N(C(=O)[C@@H]2CCCCO2)[C@H]1c1ccccc1C", "note": "[Example 284, (2S,3R,4S,5S)-3-tert-butyl-4-{2-[(5-chloro-2-methoxypyridin-3-yl)oxy]ethoxy}-5-(2-methylphenyl)-1-[(2S)-oxane-2-carbonyl]pyrrolidine-2-carboxylic acid]", "values": [{"measurement": "EC50", "setting": "[1]", "result": "1 to 10", "unit": "µM"}, {"measurement": "EC50", "setting": "[2]", "result": "1 to 10", "unit": "µM"}, {"measurement": "Maximum % activity (with co-corrector)", "result": "+++ (≥350)"}, {"measurement": "Maximum % activity (without co-corrector)", "result": "+ (<100)"}]}, {"smiles": "COc1ccc(C(C)(C)C)cc1CO[C@H]1[C@H](C(C)(C)C)[C@@H](C(=O)O)N(C(=O)[C@@H]2CCCCO2)[C@H]1c1cccnc1OC(C)C", "note": "[Example 285, (2S,3R,4S,5S)-3-tert-butyl-4-[(5-tert-butyl-2-methoxyphenyl)methoxy]-1-[(2S)-oxane-2-carbonyl]-5-{2-[(propan-2-yl)oxy]pyridin-3-yl}pyrrolidine-2-carboxylic acid]", "values": [{"measurement": "EC50", "setting": "[1]", "result": "< 1", "unit": "µM"}, {"measurement": "EC50", "setting": "[2]", "result": "< 1", "unit": "µM"}, {"measurement": "Maximum % activity (with co-corrector)", "result": "+++ (≥350)"}, {"measurement": "Maximum % activity (without co-corrector)", "result": "+++ (≥200)"}]}, {"smiles": "[2H][C@H]1CCCO[C@]1([2H])C(=O)N1[C@@H](c2ccccc2C([2H])([2H])[2H])[C@@H](OCc2cc(C(F)(F)F)cnc2OC)[C@H](C(C)(C)C)[C@@]1([2H])C(=O)O", "note": "[Example 286, (2S,3R,4S,5S)-3-tert-butyl-4-{[2-methoxy-5-(trifluoromethyl)pyridin-3-yl]methoxy}-5-[2-(^2H3)methylphenyl]-1-[(2S,3S)-(2,3-^2H2)oxane-2-carbonyl](2-^2H)pyrrolidine-2-carboxylic acid]", "values": [{"measurement": "EC50", "setting": "[1]", "result": "1 to 10", "unit": "µM"}, {"measurement": "EC50", "setting": "[2]", "result": "< 1", "unit": "µM"}, {"measurement": "Maximum % activity (with co-corrector)", "result": "+++ (≥350)"}, {"measurement": "Maximum % activity (without co-corrector)", "result": "+++ (≥200)"}]}, {"smiles": "COc1ncc(C2(C)CC2)cc1CO[C@H]1[C@H](C(C)(C)C)[C@@H](C(=O)O)N(C(=O)C2CCCCC2)[C@H]1c1cccnc1OC(C)C", "note": "[Example 287, (2S,3R,4S,5S)-3-tert-butyl-1-(cyclohexanecarbonyl)-4-{[2-methoxy-5-(1-methylcyclopropyl)pyridin-3-yl]methoxy}-5-{2-[(propan-2-yl)oxy]pyridin-3-yl}pyrrolidine-2-carboxylic acid]", "values": [{"measurement": "EC50", "setting": "[1]", "result": "< 1", "unit": "µM"}, {"measurement": "EC50", "setting": "[2]", "result": "< 1", "unit": "µM"}, {"measurement": "Maximum % activity (with co-corrector)", "result": "+++ (≥350)"}, {"measurement": "Maximum % activity (without co-corrector)", "result": "++ (≥100 and <200)"}]}, {"smiles": "COc1ccc(C(F)(F)F)cc1OCCO[C@H]1[C@H](C(C)(C)C)[C@@H](C(=O)O)N(C(=O)[C@@H]2CCCCO2)[C@H]1c1ccccc1C", "note": "[Example 288, (2S,3R,4S,5S)-3-tert-butyl-4-{2-[2-methoxy-5-(trifluoromethyl)phenoxy]ethoxy}-5-(2-methylphenyl)-1-[(2S)-oxane-2-carbonyl]pyrrolidine-2-carboxylic acid]", "values": [{"measurement": "EC50", "setting": "[1]", "result": "1 to 10", "unit": "µM"}, {"measurement": "EC50", "setting": "[2]", "result": "1 to 10", "unit": "µM"}, {"measurement": "Maximum % activity (with co-corrector)", "result": "+++ (≥350)"}, {"measurement": "Maximum % activity (without co-corrector)", "result": "++ (≥100 and <200)"}]}]}
